Results reported in patent US9029063B2, “Negative-working lithographic printing plate precursors” (Eastman Kodak Company, priority 2011, dated 2015).
Read-outs that look alike come from different tables or passages of the source.

Assay: Solubility in Dowanol PM (2-methoxy propanol)
Type: physicochemical
Conditions: 20 °C, organic solvent or mixture
Text: The imagable layers comprise a radiation-sensitive imaging composition that includes one or more infrared radiation absorbing dyes. […] 2-Methoxy propanol (or propylene glycol methyl ether) is available from various commercial sources, and for example, can be obtained in Dowanol® PM. In some embodiments, the ion exchange products formed between the infrared radiation absorbing cyanine cation and any counter anion from any other components, for example, a free radical initiator, in the imagable layer.
Dowanol® PM is propylene glycol methyl ether that is available from Dow Chemical.

[1] = Dowanol PM (2-methoxy propanol), Table I, read-out: S1, Solubility of IR Dye in Dowanol PM
[2] = tetraphenylborate salt of the dye cation, Dowanol PM, Table I, read-out: S2, Solubility of the tetraphenylborate salt of the IR cation in Dowanol PM
[3] = Dowanol PM (2-methoxy propanol), Table II, read-out: S1, solubility of IR Dye in Dowanol PM
[4] = Dowanol PM (2-methoxy propanol), Table IV, read-out: S1, solubility of IR Dye in Dowanol PM
[5] = tetraphenyl borate salt of the dye cation, Dowanol PM, Table II, read-out: S2, solubility of the tetraphenyl borate salt of the IR cation in Dowanol PM
[6] = tetraphenyl borate salt of the dye cation, Dowanol PM, Table IV, read-out: S2, solubility of the tetraphenyl borate salt of the IR cation in Dowanol PM

| solubility [1] [mg/mL] | solubility [2] [mg/mL] | solubility [3] [mg/mL] | solubility [4] [mg/mL] | solubility [5] [mg/mL] | solubility [6] [mg/mL] | SMILES |
| --- | --- | --- | --- | --- | --- | --- |
| 97 | 21 | – | – | – | – | CN1/C(=C/C=C2\CCCC(/C=C/C3=[N+](C)c4ccccc4C3(C)C)=C2Sc2ccc(C(C)(C)C)cc2)C(C)(C)c2ccccc21 [compound 4] |
| 192 | 1.4 | 192 | 192 | 1.4 | 1.4 | CN1/C(=C/C=C2\CCCC(/C=C/C3=[N+](C)c4ccccc4C3(C)C)=C2Sc2nnnn2-c2ccccc2)C(C)(C)c2ccccc21 [compound 1] |
| – | 4.8 | 128 | 128 | 4.8 | 4.8 | C=Cc1ccc(CSc2nnc(SC3=C(/C=C/C4=[N+](C)c5ccccc5C4(C)C)CCC/C3=C\C=C3\N(C)c4ccccc4C3(C)C)s2)cc1 [compound 2] |
